Results taken from patent US10945438B2, “Methods and compositions for reducing fungal infestation and improving grass quality” (BASF CORPORATION, priority 2015, dated 2021).

Tested on: yellow spot
Assay: Percent turf area exhibiting yellow spot symptoms (Example 2)
Type: in vivo, Agrostis palustris
Conditions: alone versus in combination
Method: In another aspect, a composition herein treats or reduces yellow spot disease. Yellow spot appears in the form of yellow, chlorotic, circular discrete patches ranging from dime/quarter size up to 2-3 inches diameter on bentgrass putting greens, tees, and approaches.
The study was conducted on “A-1” creeping bentgrass maintained as a golf course putting green. Plots were mowed 6 times per week with clippings collected. The study was irrigated to prevent drought stress. Individual plots were 3 ft×6 ft and arranged in a randomized complete block design with 4 replications. Chipco 26GT (4 fl oz/1000 ft^2) was applied to the study for suppression of dollar spot and brown patch on 2 May, 9 June, 29 July, and 20 August. Treatments were applied in water equivalent to 2 gal 1000 ft-2 with a CO2-powered sprayer equipped with a TeeJet AI9508E nozzle at 50 psi. Treatments were initiated on 24 April and applied on 28-day intervals. The study was irrigated with 0.1-0.2 inches of water after all treatments were applied. […] Turfgrass quality was assessed on 24 April, 21 May, 18 June, 16 July, 13 August, and 2 September. NDVI was assessed on 21 May, 18 June, 17 July, 13 August, and 2 September. Root length (3 subsamples per plot) was assessed on 18 September.

CCCOC(=O)NCCCN(C)C [propamocarb]
Control of yellow spot disease (in words): not controlled
